Measurements published in patent US7705047B2, “Amidoacetonitrile derivatives” (Novartis AG, priority 2003, dated 2010).

Tested on: Trichostrongylus colubriformis and Haemonchus contortus
Assay: In-vivo test on Trichostrongylus colubriformis and Haemonchus contortus on Mongolian gerbils using peroral application
Parameters: species or system Mongolian gerbils (Meriones unguiculatus)
Conditions: Mongolian gerbils infected with T. colubriformis and H. contortus, dose of 16 mg/kg, worm count 3 days after treatment
From the text: 1. In-vivo Test on Trichostrongylus colubriformis and Haemonchus contortus on Mongolian Gerbils (Meriones unguiculatus) using Peroral Application Six to eight week old Mongolian gerbils are infected through a stomach tube with ca. 2000 third instar larvae each of T. colubriformis and H. contortus. […] On day 9 (3 days after treatment), when most of the H. contortus that are still present are late 4th instar larvae and most of the T. colubriformis are immature adults, the gerbils are killed in order to count the worms. The efficacy is calculated as the % reduction of the number of worms in each gerbil, compared with the geometric average of number of worms from 6 infected and untreated gerbils.

SMILES: CC(C#N)(COc1cc(C#N)ccc1Oc1ccc(Cl)cc1Cl)NC(=O)c1ccc(OC(F)(F)F)cc1 (stereo not shown) [Compound 1.47, N-[1-cyano-1-methyl-2-(5-cyano-2-{2,4-dichlorophenoxy}-phenoxy)-ethyl]-4-trifluoromethoxybenzamide]
- elimination of the nematode infestation: complete elimination
